Biological target: T1, recombinant human (rh) KLK5 protease (Homo sapiens, UniProt Q9Y337)
T1 construct: purchased R&D Systems 1108-SE
T1 sequence (Q9Y337 23-293): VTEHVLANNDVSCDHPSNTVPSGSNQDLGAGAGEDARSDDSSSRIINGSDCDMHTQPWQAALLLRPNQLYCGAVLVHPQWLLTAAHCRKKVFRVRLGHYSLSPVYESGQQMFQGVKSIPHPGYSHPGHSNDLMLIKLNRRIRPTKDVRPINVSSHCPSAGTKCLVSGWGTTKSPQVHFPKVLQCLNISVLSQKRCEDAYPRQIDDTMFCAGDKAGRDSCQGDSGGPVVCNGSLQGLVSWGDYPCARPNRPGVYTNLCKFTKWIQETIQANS
Experiment: Enzymatic activity of Kallikrein 5 (KLK5), fluorogenic peptide substrate Boc-V-P-R-AMC
Assay type: biochemical
Description: The compound of Formula 1a was assayed for enzymatic activity of Kallikrein 5 (KLK5) as follows, and its activity compared to that of salicylic acid. The KLK5 activity of the compound of Formula 1a was calculated as a percentage of KLK5 activity relative to salicylic acid.
In the stratum corneum, skin's outermost layer, cell-to-cell cohesion depends primarily on proteins known as the corneodesmosomes. During skin remodeling and renewal dead cells are shed from the skin surface by the action of native proteases that break down the corneodesmosomes. […] To this end, the enzymatic activity of a member of the KLK family, recombinant human (rh) KLK5, was monitored following pre-incubation with actives and measuring the rate of peptide bond cleavage of a synthetic substrate.
Enzymatic activity of KLK5 was measured by incubating recombinant human (rh) KLK5 protease (R&D Systems, Cat No. 1108-SE) with a specific fluorogenic peptide substrate Boc-V-P-R-AMC (R&D Systems, Cat No. ES011). […] Increase in fluorescence reading indicates an increase in rhKLK5 activity. […] After 60 seconds of incubation, fluorescence was measured at 340 nm (Excitation wavelength) and 485 nm (Emission wavelength) every 1 minute for 7 minutes. Rate (kinetics) of enzyme activity was calculated as follows: Rate of enzyme activity=Change of fluorescent reading (after background correction)/Change of reaction time (min). […]

KLK5 activity as a percentage relative to salicylic acid (stimulator effect) (relative to salicylic acid, dimer tested at a concentration approximately half of that of salicylic acid, difference not significant): about 90% | KLK5 stimulation (in words) (rhKLK5 enzymatic activity): potent stimulator of KLK5
SMILES: O=C(Oc1ccccc1C(=O)O)c1ccccc1O [compound of Formula 1a]

From patent US9474702B2, “Cosmetic use of salicylic acid derivatives” (Avon Products, Inc., priority 2013, dated 2016)
